Measurements from the NIST ThermoML archive (doi:10.1021/acs.jced.9b00846).
± gives the expanded uncertainty stated by the source.

Details: Liquid, Vibrating tube method

CC(C)CC(C)C [2,4-dimethylpentane]
mass density (323.15 K, 25018 kPa): 673.5 ± 0.9 kg/m3 | mass density (323.15 K, 29938 kPa): 677.9 ± 0.9 kg/m3 | mass density (323.15 K, 35006 kPa): 682.2 ± 1 kg/m3 | mass density (323.15 K, 39965 kPa): 686.1 ± 1 kg/m3 | mass density (323.15 K, 45012 kPa): 690 ± 1 kg/m3 | mass density (323.15 K, 49970 kPa): 693.6 ± 1.1 kg/m3 | mass density (323.15 K, 54953 kPa): 697.1 ± 1.1 kg/m3 | mass density (323.15 K, 59965 kPa): 700.4 ± 1.1 kg/m3 | mass density (323.15 K, 65022 kPa): 703.7 ± 1.1 kg/m3 | mass density (328.15 K, 98 kPa): 641 ± 0.8 kg/m3 | mass density (328.15 K, 5010 kPa): 647.8 ± 0.8 kg/m3 | mass density (328.15 K, 9934 kPa): 653.9 ± 0.8 kg/m3 | mass density (328.15 K, 14950 kPa): 659.6 ± 0.9 kg/m3 | mass density (328.15 K, 19968 kPa): 664.9 ± 0.9 kg/m3 | mass density (328.15 K, 25011 kPa): 669.8 ± 0.9 kg/m3 | mass density (328.15 K, 30040 kPa): 674.5 ± 0.9 kg/m3 | mass density (328.15 K, 34952 kPa): 678.7 ± 1 kg/m3 | mass density (328.15 K, 39959 kPa): 682.8 ± 1 kg/m3 | mass density (328.15 K, 45017 kPa): 686.8 ± 1 kg/m3 | mass density (328.15 K, 49935 kPa): 690.4 ± 1.1 kg/m3 | mass density (328.15 K, 54941 kPa): 694 ± 1.1 kg/m3 | mass density (328.15 K, 59962 kPa): 697.4 ± 1.1 kg/m3 | mass density (328.15 K, 65006 kPa): 700.8 ± 1.1 kg/m3 | mass density (333.15 K, 92 kPa): 636.3 ± 0.8 kg/m3 | mass density (333.15 K, 4968 kPa): 643.3 ± 0.8 kg/m3 | mass density (333.15 K, 9977 kPa): 649.8 ± 0.8 kg/m3 | mass density (333.15 K, 15014 kPa): 655.7 ± 0.9 kg/m3 | mass density (333.15 K, 19986 kPa): 661.1 ± 0.9 kg/m3 | mass density (333.15 K, 25001 kPa): 666.2 ± 0.9 kg/m3 | mass density (333.15 K, 29959 kPa): 670.9 ± 0.9 kg/m3 | mass density (333.15 K, 34922 kPa): 675.3 ± 1 kg/m3 | mass density (333.15 K, 39972 kPa): 679.5 ± 1 kg/m3 | mass density (333.15 K, 45064 kPa): 683.6 ± 1 kg/m3 | mass density (333.15 K, 50006 kPa): 687.3 ± 1.1 kg/m3 | mass density (333.15 K, 54975 kPa): 691 ± 1.1 kg/m3 | mass density (333.15 K, 59984 kPa): 694.5 ± 1.1 kg/m3 | mass density (333.15 K, 64995 kPa): 697.8 ± 1.2 kg/m3 | mass density (338.15 K, 107 kPa): 631.7 ± 0.8 kg/m3 | mass density (338.15 K, 5007 kPa): 639.1 ± 0.8 kg/m3 | mass density (338.15 K, 9978 kPa): 645.7 ± 0.8 kg/m3 | mass density (338.15 K, 14968 kPa): 651.8 ± 0.9 kg/m3 | mass density (338.15 K, 19968 kPa): 657.4 ± 0.9 kg/m3 | mass density (338.15 K, 25042 kPa): 662.7 ± 0.9 kg/m3 | mass density (338.15 K, 30018 kPa): 667.5 ± 0.9 kg/m3 | mass density (338.15 K, 35052 kPa): 672.1 ± 1 kg/m3 | mass density (338.15 K, 39990 kPa): 676.3 ± 1 kg/m3 | mass density (338.15 K, 45087 kPa): 680.5 ± 1 kg/m3 | mass density (338.15 K, 49968 kPa): 684.3 ± 1.1 kg/m3 | mass density (338.15 K, 55044 kPa): 688.1 ± 1.1 kg/m3 | mass density (338.15 K, 60031 kPa): 691.6 ± 1.1 kg/m3 | mass density (338.15 K, 64997 kPa): 695 ± 1.2 kg/m3 | mass density (343.15 K, 98 kPa): 626.8 ± 0.8 kg/m3 | mass density (343.15 K, 4944 kPa): 634.4 ± 0.8 kg/m3 | mass density (343.15 K, 10008 kPa): 641.5 ± 0.9 kg/m3 | mass density (343.15 K, 14958 kPa): 647.7 ± 0.9 kg/m3 | mass density (343.15 K, 19959 kPa): 653.5 ± 0.9 kg/m3 | mass density (343.15 K, 25045 kPa): 658.9 ± 0.9 kg/m3 | mass density (343.15 K, 30012 kPa): 663.9 ± 0.9 kg/m3 | mass density (343.15 K, 34980 kPa): 668.5 ± 1 kg/m3 | mass density (343.15 K, 40024 kPa): 672.9 ± 1 kg/m3 | mass density (343.15 K, 44956 kPa): 677.1 ± 1 kg/m3 | mass density (343.15 K, 50037 kPa): 681.1 ± 1.1 kg/m3 | mass density (343.15 K, 55010 kPa): 684.9 ± 1.1 kg/m3 | mass density (343.15 K, 59979 kPa): 688.5 ± 1.1 kg/m3 | mass density (343.15 K, 65088 kPa): 692.1 ± 1.2 kg/m3 | mass density (348.15 K, 103 kPa): 622 ± 0.8 kg/m3 | mass density (348.15 K, 4998 kPa): 630 ± 0.8 kg/m3 | mass density (348.15 K, 9948 kPa): 637.2 ± 0.9 kg/m3 | mass density (348.15 K, 15016 kPa): 643.8 ± 0.9 kg/m3 | mass density (348.15 K, 19991 kPa): 649.7 ± 0.9 kg/m3 | mass density (348.15 K, 25051 kPa): 655.3 ± 0.9 kg/m3 | mass density (348.15 K, 29994 kPa): 660.3 ± 1 kg/m3 | mass density (348.15 K, 34970 kPa): 665.1 ± 1 kg/m3 | mass density (348.15 K, 39979 kPa): 669.6 ± 1 kg/m3 | mass density (348.15 K, 45063 kPa): 673.9 ± 1 kg/m3 | mass density (348.15 K, 50024 kPa): 678 ± 1.1 kg/m3 | mass density (348.15 K, 54974 kPa): 681.8 ± 1.1 kg/m3 | mass density (348.15 K, 59994 kPa): 685.5 ± 1.1 kg/m3 | mass density (353.15 K, 1014 kPa): 618.8 ± 0.8 kg/m3 | mass density (353.15 K, 5010 kPa): 625.6 ± 0.8 kg/m3 | mass density (353.15 K, 9950 kPa): 633 ± 0.9 kg/m3 | mass density (353.15 K, 15037 kPa): 639.9 ± 0.9 kg/m3 | mass density (353.15 K, 19996 kPa): 646 ± 0.9 kg/m3 | mass density (353.15 K, 25024 kPa): 651.7 ± 0.9 kg/m3 | mass density (353.15 K, 29983 kPa): 656.9 ± 1 kg/m3 | mass density (353.15 K, 34950 kPa): 661.8 ± 1 kg/m3 | mass density (353.15 K, 40060 kPa): 666.5 ± 1 kg/m3 | mass density (353.15 K, 45017 kPa): 670.8 ± 1 kg/m3 | mass density (353.15 K, 49987 kPa): 674.9 ± 1.1 kg/m3 | mass density (353.15 K, 54976 kPa): 678.9 ± 1.1 kg/m3 | mass density (353.15 K, 59989 kPa): 682.7 ± 1.1 kg/m3 | mass density (358.15 K, 5026 kPa): 621 ± 0.8 kg/m3 | mass density (358.15 K, 9954 kPa): 628.7 ± 0.9 kg/m3 | mass density (358.15 K, 15017 kPa): 635.8 ± 0.9 kg/m3 | mass density (358.15 K, 19926 kPa): 642 ± 0.9 kg/m3 | mass density (358.15 K, 25014 kPa): 647.9 ± 0.9 kg/m3 | mass density (358.15 K, 30045 kPa): 653.4 ± 1 kg/m3 | mass density (358.15 K, 35004 kPa): 658.3 ± 1 kg/m3 | mass density (358.15 K, 40013 kPa): 663.1 ± 1 kg/m3 | mass density (358.15 K, 44988 kPa): 667.5 ± 1 kg/m3 | mass density (358.15 K, 49996 kPa): 671.7 ± 1.1 kg/m3 | mass density (358.15 K, 55037 kPa): 675.8 ± 1.1 kg/m3 | mass density (358.15 K, 60020 kPa): 679.6 ± 1.1 kg/m3 | mass density (358.15 K, 65016 kPa): 683.3 ± 1.2 kg/m3 | mass density (363.15 K, 4947 kPa): 616.2 ± 0.8 kg/m3 | mass density (363.15 K, 10031 kPa): 624.5 ± 0.9 kg/m3 | mass density (363.15 K, 15019 kPa): 631.7 ± 0.9 kg/m3 | mass density (363.15 K, 19970 kPa): 638.2 ± 0.9 kg/m3 | mass density (363.15 K, 25122 kPa): 644.3 ± 0.9 kg/m3 | mass density (363.15 K, 30059 kPa): 649.8 ± 1 kg/m3 | mass density (363.15 K, 35064 kPa): 654.9 ± 1 kg/m3 | mass density (363.15 K, 40055 kPa): 659.8 ± 1 kg/m3 | mass density (363.15 K, 45078 kPa): 664.3 ± 1.1 kg/m3 | mass density (363.15 K, 49933 kPa): 668.5 ± 1.1 kg/m3 | mass density (363.15 K, 54989 kPa): 672.7 ± 1.1 kg/m3 | mass density (363.15 K, 59992 kPa): 676.6 ± 1.2 kg/m3 | mass density (363.15 K, 65058 kPa): 680.3 ± 1.2 kg/m3
